This is an account of results in US10913727B2, “Modulators of the integrated stress pathway” (Calico Life Sciences LLC, priority 2016, dated 2021).

The subject of this test is HEK293T cells carrying the ATF4 luciferase reporter. The experiment in a line: ATF4-Luc assay, in vitro model of Vanishing Cell White Matter Disease (VWMD). It counts as cell-based. The conditions noted are these: Homo sapiens, HEK-293T, 1 μg/mL tunicamycin, 7 hours, One Glo luminescence. The method in brief:
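Compound at 200 nM and tunicamycin at 1 μg/mL were given together for 7 h to HEK293T cells stably transduced with an ATF4 5′-UTR-driven firefly luciferase reporter. Read-out by luminescence, reported as EC50.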
As for `O=C(COc1ccc(Cl)c(F)c1)NC12CCC(NC(=O)c3ccc(F)cn3)(CC1)CC2O` (centres unmarked) [Compound 230, N-{4-[2-(4-chloro-3-fluorophenoxy)acetamido]-3-hydroxybicyclo[2.2.2]octan-1-yl}-5-fluoropyridine-2-carboxamide], the 50% effective concentration (EC50) is 0.05 to 0.25 µM.
`Cc1ccc(C(=O)NC23CCC(NC(=O)COc4ccc(Cl)c(F)c4)(CC2)[C@@H](O)C3)nc1` [Compound 729, N-{(3S)-4-[2-(4-chloro-3-fluorophenoxy)acetamido]-3-hydroxybicyclo[2.2.2]octan-1-yl}-5-methylpyridine-2-carboxamide]: the concentration giving a half-maximal response (EC50) is < 0.05 µM.
Then `Cc1cnc(C(=O)NC23CC(NC(=O)COc4ccc(Cl)c(F)c4)(C2)C3)o1` [Compound 478, N-{3-[2-(4-chloro-3-fluorophenoxy)acetamido]bicyclo[1.1.1]pentan-1-yl}-5-methyl-1,3-oxazole-2-carboxamide], with 0.05 to 0.25 µM.
The figure for `Cc1cc(C(=O)NC23CCC(NC(=O)COc4ccc(Cl)c(F)c4)(CC2)C(O)C3)sn1` (centres unmarked) [Compound 578, N-{4-[2-(4-chloro-3-fluorophenoxy)acetamido]-3-hydroxybicyclo[2.2.2]octan-1-yl}-3-methyl-1,2-thiazole-5-carboxamide] is < 0.05 µM; for `Cc1noc(C)c1C(=O)NC12CCC(NC(=O)COc3ccc(Cl)c(F)c3)(CC1)CC2O` (centres unmarked) [Compound 216, N-{4-[2-(4-chloro-3-fluorophenoxy)acetamido]-2-hydroxybicyclo[2.2.2]octan-1-yl}-3,5-dimethyl-1,2-oxazole-4-carboxamide] it is > 2 µM; for `O=C(COc1ccc(Cl)c(F)c1)NC12CCC(NC(=O)c3ccncn3)(CC1)C(O)C2` (centres unmarked) [Compound 226, N-{4-[2-(4-chloro-3-fluorophenoxy)acetamido]-2-hydroxybicyclo[2.2.2]octan-1-yl}pyrimidine-4-carboxamide] it is 0.25 to 1 µM.
In the case of `Cc1ncc(C(=O)NC23CCC(NC(=O)COc4ccc(Cl)c(F)c4)(CC2)[C@@H](O)C3)nc1C` [Compound 672, N-{(3S)-4-[2-(4-chloro-3-fluorophenoxy)acetamido]-3-hydroxybicyclo[2.2.2]octan-1-yl}-5,6-dimethylpyrazine-2-carboxamide], the EC50 was 0.05 to 0.25 µM.
With `O=C(COc1ccc(Cl)c(Cl)c1)NC12CC(NC(=O)c3ccc(CO)cn3)(C1)C2` [Compound 160, N-{3-[2-(3,4-dichlorophenoxy)acetamido]bicyclo[1.1.1]pentan-1-yl}-5-(hydroxymethyl)pyridine-2-carboxamide], the concentration for a half-maximal effect (EC50) fell in the range of 0.25 to 1 µM.
The figure for `CCOC(=O)c1ccnc(C(=O)NC23CC(NC(=O)COc4ccc(Cl)c(F)c4)(C2)C3)c1` [Compound 204, ethyl 2-({3-[2-(4-chloro-3-fluorophenoxy)acetamido]bicyclo[1.1.1]pentan-1-yl}carbamoyl)pyridine-4-carboxylate] is 0.05 to 0.25 µM.
The figure for `O=C(COc1ccc(Cl)c(F)c1)NC12CC(NC(=O)c3ccc4c(c3)OC(F)(F)O4)(C1)C2` [Compound 234, N-{3-[2-(4-chloro-3-fluorophenoxy)acetamido]bicyclo[1.1.1]pentan-1-yl}-2,2-difluoro-2H-1,3-benzodioxole-5-carboxamide] is < 0.05 µM.
Then `O=C(COc1ccc(Cl)c(Cl)c1)NC12CC(NC(=O)c3ccc(OC(F)F)cn3)(C1)C2` [Compound 153, N-{3-[2-(3,4-dichlorophenoxy)acetamido]bicyclo[1.1.1]pentan-1-yl}-5-(difluoromethoxy)pyridine-2-carboxamide], with 0.05 to 0.25 µM; and `COCc1cncc(C(=O)NC23CC(NC(=O)COc4ccc(Cl)c(F)c4)(C2)C3)c1` [Compound 568, N-{3-[2-(4-chloro-3-fluorophenoxy)acetamido]bicyclo[1.1.1]pentan-1-yl}-5-(methoxymethyl)pyridine-3-carboxamide], with 0.05 to 0.25 µM; and `N#Cc1ccc(C(=O)NC23CC(NC(=O)COc4ccc(Cl)c(F)c4)(C2)C3)s1` [Compound 885, N-{3-[2-(4-chloro-3-fluorophenoxy)acetamido]bicyclo[1.1.1]pentan-1-yl}-5-cyanothiophene-2-carboxamide], with > 2 µM.
For the compound `Cc1cc(C(=O)NC23CCC(NC(=O)COc4ccc(Cl)c(F)c4)(C2)C3)sn1` [Compound 710, N-{4-[2-(4-chloro-3-fluorophenoxy)acetamido]bicyclo[2.1.1]hexan-1-yl}-3-methyl-1,2-thiazole-5-carboxamide], the EC50 fell in the range of 0.25 to 1 µM.
The figure for `O=C(COc1ccc(Cl)c(F)c1)NC12CC(Nc3ccnc(-c4ccc(Cl)cc4)n3)(C1)C2` [Compound 427, 2-(4-chloro-3-fluorophenoxy)-N-(3-{[2-(4-chlorophenyl)pyrimidin-4-yl]amino}bicyclo[1.1.1]pentan-1-yl)acetamide] is 0.25 to 1 µM.
Then `Cc1ccc(C(=O)NC23CC(NC(=O)COc4ccc(Cl)c(F)c4)(C2)C3)nc1` [Compound 146, N-{3-[2-(4-chloro-3-fluorophenoxy)acetamido]bicyclo[1.1.1]pentan-1-yl}-5-methylpyridine-2-carboxamide], with 0.05 to 0.25 µM; and `CCc1cc(C(=O)NC23CC(NC(=O)COc4ccc(Cl)c(F)c4)(C2)C3)no1` [Compound 247, N-{3-[2-(4-chloro-3-fluorophenoxy)acetamido]bicyclo[1.1.1]pentan-1-yl}-5-ethyl-1,2-oxazole-3-carboxamide], with 0.25 to 1 µM; and `O=C(COc1ccc(Cl)c(F)c1)NC12CCC(NC(=O)c3ccc(N4CCCC4)cn3)(CC1)CC2O` (centres unmarked) [Compound 940, N-{4-[2-(4-chloro-3-fluorophenoxy)acetamido]-3-hydroxybicyclo[2.2.2]octan-1-yl}-5-(pyrrolidin-1-yl)pyridine-2-carboxamide], with 0.05 to 0.25 µM.
Then `CC(C)(O)/C=C/c1ccnc(C(=O)NC23CC(NC(=O)COc4ccc(Cl)c(F)c4)(C2)C3)c1` [Compound 430, N-{3-[2-(4-chloro-3-fluorophenoxy)acetamido]bicyclo[1.1.1]pentan-1-yl}-4-[(1E)-3-hydroxy-3-methylbut-1-en-1-yl]pyridine-2-carboxamide], with > 2 µM; and `O=C(COc1ccc(Cl)c(F)c1)NC12CC(NC(=O)c3cnc4ccccc4c3)(C1)C2` [Compound 587, N-{3-[2-(4-chloro-3-fluorophenoxy)acetamido]bicyclo[1.1.1]pentan-1-yl}quinoline-3-carboxamide], with 0.05 to 0.25 µM.
For the compound `Cc1cc(C(=O)NC23CC(NC(=O)COc4ccc(Cl)c(F)c4)(C2)C3)cnc1C` [Compound 856, N-{3-[2-(4-chloro-3-fluorophenoxy)acetamido]bicyclo[1.1.1]pentan-1-yl}-5,6-dimethylpyridine-3-carboxamide], the 50% effective concentration (EC50) was in the range of 0.25 to 1 µM.
For `O=C(COc1ccc(Cl)c(F)c1)NC12CC(NC(=O)c3coc4c3C(=O)CCC4)(C1)C2` [Compound 315, N-{3-[2-(4-chloro-3-fluorophenoxy)acetamido]bicyclo[1.1.1]pentan-1-yl}-4-oxo-4,5,6,7-tetrahydro-1-benzofuran-3-carboxamide], the EC50 lay in the range of 0.25 to 1 µM.
Regarding `O=C(COc1ccc(Cl)c(F)c1)NC12CC(NC(=O)c3n[nH]c4ccccc34)(C1)C2` [Compound 318, N-{3-[2-(4-chloro-3-fluorophenoxy)acetamido]bicyclo[1.1.1]pentan-1-yl}-1H-indazole-3-carboxamide], the concentration for a half-maximal effect (EC50) was > 2 µM.
